From US20200323815A1, “AMORPHOUS DISPERSIONS OF EPIGALLOCATECHIN GALLATE” (AMRI SSCI, LLC, priority 2017, published 2020)

What was measured:
[1] = Dissolution test in pH 7.4 PBS at 37° C.; format: physicochemical; conditions: for Release of EGCG in the first 20 minutes: 20 mg EGCG equivalent in 100 mL; for Visible solids during dissolution test: up to 24 hours
Procedure: As an initial proposition, the dispersions, aEGCG and cEGCG were modeled with respect to pseudo-second order models according to equation 1 where t is time, Q is cumulative release, and Qe the final release and, and k2 the rate constant of pseudo-second order kinetics.
Dissolution testing was performed in 100 mL of standard phosphate-buffered salines (pH 7.4) at 37° C. in a jacketed beaker. The temperature was precisely controlled by a Julabo Heating Circulator. EGCG concentration in the solution was in-situ monitored via an Ocean Optics USB2000+UV-VIS spectrometer equipped with an RT-2MM Dip Probe. The testing was performed with continuous stirring until all solids were dissolved and the medium was free of observable particles, or up to 24 hours. For early period of dissolution, the data acquisition density was relatively large to capture all sudden changes; while at later periods, the data acquisition frequency was reduced due to slow evolution in the medium. For each material, an equivalency of 20 mg EGCG was tested and the experiment was monitored until all solids were dissolved or up to 24 hours. Based on the dissolution data, all EGCG (˜20 mg) were released into the medium within the period of dissolution tests for all samples.

[2] = Stress tests in simulated GI tract media (SGF and SIF), observed under PLM; format: physicochemical
Procedure: For stress testing in media, solids of aEGCG and the dispersions were suspended in SGFs and SIFs (see Example 6), and the suspensions were observed under polarized light microscope from time to time to look for the evidence of birefringence and extinction (B/E) of the materials, which is the indication of the occurrence of crystallization in a material.
Polarized light microscopy (PLM) was performed using a Leica DM LP microscope with cross polarizer. SEM was performed using a FEI Quanta 200 scanning electron microscope equipped with an Everhart Thornley (ET) detector. Images were collected and analyzed using xTm (v. 2.01) and XT Docu (v. 3.2) software, respectively. The thermogravimetric analyses (TGA) were performed using a TA Instruments Q5000 IR thermogravimetric analyzer. Each sample was placed in an aluminum sample pan and inserted into the TGA furnace. The furnace was first equilibrated at 25° C., and then heated under N2 at a rate of 10° C./min, up to a final temperature of 350° C. Modulated differential scanning calorimetry (mDSC) data were obtained on a TA Instruments Q2920 differential scanning calorimeter equipped with a refrigerated cooling system (RCS). The test was progressed by modulating temperature±0.8° C. every 60 seconds from 0 to 180° C. The reported glass transition temperature (Tg) is obtained from the inflection point of the step change in the reversing heat flow versus temperature curve.
Solids were suspended in media including simulated gastric fluid (SGF) and simulated intestinal fluid (SIF), and observed under PLM from time to time up to 24 hours for evidence of crystallization indicative by the appearance of birefringence/extinctions. Because of the high solubility of aEGCG, more materials were suspended into the media compared with the dispersions.

[3] = cited from earlier work
[4] = values as low as; rodents and humans; cited from earlier work
[5] = Stress test at about 40° C./75% RH for 11 days; format: physicochemical
Procedure: The physical stability of aEGCG and the four dispersions were evaluated at different conditions including a typical stress condition of 40° C./75% RH for 11 days, and in media of SGF and SIF for 24 h. Table 1 summarizes the visual observations on the materials after they have been stressed at 40° C./75% RH for 11 days. The aEGCG became a hard material after stress, while all the dispersions were particles or soft aggregates.
XRPD patterns were collected with a PANalytical X'Pert PRO MPD diffractometer using an incident beam of Cu radiation produced using an Optix long, fine-focus source. An elliptically graded multilayer mirror was used to focus Cu Kα X-rays through the specimen and onto the detector. Prior to the analysis, a silicon specimen (NIST SRM 640e) was analyzed to verify the observed position of the Si 111 peak is consistent with the NIST-certified position. A specimen of the sample was sandwiched between 3-μm-thick films and analyzed in transmission geometry. A beam-stop, short antiscatter extension, and antiscatter knife edge were used to minimize the background generated by air. Soller slits for the incident and diffracted beams were used to minimize broadening from axial divergence. Diffraction patterns were collected using a scanning position-sensitive detector (X'Celerator) located 240 mm from the specimen and Data Collector software v. 2.2b. […]

[6] = Stability of dispersions of varying weight ratios, about 40° C./75% RH/30 days; format: physicochemical
Procedure: For the four polymers identified, further stress tests were carried out on dispersions with varying weight ratios of EGCG to polymer as set forth in Example 8. In these experiments, stressing was done for 30 days at 75% relative humidity at 40° C. for 30 days. FIGS. 50-63 are the XRPD patterns of the prepared dispersions prior to stressing. FIGS. 75-78 are the XRPD patterns after stressing and these too show the samples to amorphous by XRPD. FIGS. 82, 83, and 85 show a peak indicative of NaCl, which is used in the salt both of the humidity chamber storing the samples. Thus, such a peak is not indicative of any crystalline EGCG in the corresponding dispersions. […] Based on the XRPD results, the post-stressing dispersions were x-ray amorphous (other than the NaCl peaks).
20 capsules of Teavigo™ were broken and the solids were suspended in ˜300 mL HPLC grade water and filtered to remove the solids. The resultant solution was clear with no evidence of solid particles observed. The solution was then dried under N2 purge until water is fully removed based on visual observation. Such generated EGCG solids were directly used for generating amorphous EGCG and solid dispersions.
EGCG solid dispersions were prepared by lyophilization using four polymers including HPMC-AS, HPMC-P, Soluplus®, and cellulose acetate. Individual solutions of polymer (in dioxane) and EGCG (in water) were prepared. The EGCG aqueous solution was added into the polymer-dioxane solution slowly. Additional fresh dioxane were added into the samples followed by vigorous vortexing to reach a clear solution without visible solids or colloids.
For lyophilization, each EGCG/polymer solution was frozen in a cold bath of dry ice/acetone (at a temperature of −78° C.). The sample vial was then kept in a lyophilizer at −30° C. for 1 day, −10° C. for 2 days, 0° C. for 1 day, and then 20° C. for 4 hours. Pure EGCG aqueous solution was lyophilized as well to generate amorphous EGCG (EGCG) as a reference material for comparison with the dispersions. The lyophilized materials are free flowing materials.

Structure (SMILES)	Release of EGCG in the first 20 minutes [1]	Visible solids during dissolution test [1]	Observations under PLM in SGF ([2]; simulated gastric fluid, up to 24 h, B/E = birefringence/extinction, indicates crystallization)	Observations under PLM in SIF ([2]; simulated intestinal fluid, up to 24 h, B/E = birefringence/extinction, indicates crystallization)	Share present in plasma in free form ([3]; Manach et al. 2005)	Improvement in bioavailability ([3]; coadministration of piperine, Lambert et al. 2004) [%]	Bioavailability [4]	Visual observation after stress [5]	XRPD of post-stress samples [5]	Time to crystallization in SGF ([2]; suspended in SGF, PLM) [min]	Time to crystallization in SIF ([2]; suspended in SIF, PLM) [min]	Release profile (in words) [1]	XRPD of post-stressing solids ([6]; 40° C./75% RH, 30 days)	Color after stress ([6]; 40° C./75% RH, 30 days, visual observation)	Color as generated ([6]; before stress, visual observation)
O=C(O[C@@H]1Cc2c(O)cc(O)cc2O[C@@H]1c1cc(O)c(O)c(O)c1)c1cc(O)c(O)c(O)c1 [cEGCG, epigallocatechin gallate]	approximately 93%	dissolved without visible solids	–	–	–	–	–	–	–	–	–	–	–	–	–
O=C(O[C@@H]1Cc2c(O)cc(O)cc2O[C@@H]1c1cc(O)c(O)c(O)c1)c1cc(O)c(O)c(O)c1 [EGCG, epigallocatechin gallate]	–	–	B/E observed in 15 min	B/E observed in 15 min	77-90%	30	2-5%	–	–	–	–	–	–	–	–
O=C(O[C@@H]1Cc2c(O)cc(O)cc2O[C@@H]1c1cc(O)c(O)c(O)c1)c1cc(O)c(O)c(O)c1 [aEGCG, epigallocatechin gallate]	~100%	dissolved without visible solids	–	–	–	–	–	pink hard material, agg	highly crystalline material	≤ 15	≤ 15	immediate dissolution	converted to crystalline EGCG	pink	very light pink,
